Data taken from patent publication US20230312587A1, “PTERIDINONE COMPOUNDS AND USES THEREOF” (Vertex Pharmaceutical Incorporated, priority 2018, published 2023).

The compounds below were run against Plk1 (Homo sapiens (Human), UniProt P53350) (assay: PLK1 inhibition assay (radioactive-phosphate incorporation)). Conditions: Ki(app), read-out: PLK1 - 33P.ENZ - CB 10 Ki.
Format: biochemical
Outline: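 Radioactive-phosphate incorporation with 15 nM Plk1 and 9 µM Sam68 substrate, 20 µM [γ-33P]ATP, in 25 mM HEPES pH 7.5, 10 mM MgCl2, 25 mM NaCl, 2 mM DTT, 1.5% DMSO, room temperature, 45 min. Stopped with TCA/cold ATP, filtered, scintillation counted. Ki(app) from non-linear regression of background-corrected initial rates.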

Chain of Plk1 (P53350 whole entry, species assumed): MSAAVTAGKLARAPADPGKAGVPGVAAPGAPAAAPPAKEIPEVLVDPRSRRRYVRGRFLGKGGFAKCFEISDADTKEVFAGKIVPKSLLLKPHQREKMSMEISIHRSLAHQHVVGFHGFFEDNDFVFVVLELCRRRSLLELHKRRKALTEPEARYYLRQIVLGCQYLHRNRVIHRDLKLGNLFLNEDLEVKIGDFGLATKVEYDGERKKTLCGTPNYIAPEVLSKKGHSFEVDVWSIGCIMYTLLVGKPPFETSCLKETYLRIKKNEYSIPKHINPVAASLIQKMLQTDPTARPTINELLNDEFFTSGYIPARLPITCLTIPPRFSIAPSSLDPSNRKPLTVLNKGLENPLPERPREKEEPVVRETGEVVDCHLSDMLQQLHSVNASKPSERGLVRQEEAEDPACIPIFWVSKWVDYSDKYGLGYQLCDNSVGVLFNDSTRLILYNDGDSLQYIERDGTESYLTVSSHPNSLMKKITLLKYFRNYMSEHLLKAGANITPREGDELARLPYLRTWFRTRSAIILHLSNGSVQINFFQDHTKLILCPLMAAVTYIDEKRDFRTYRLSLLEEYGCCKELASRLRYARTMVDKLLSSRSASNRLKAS

Structure (SMILES) | Ki [µM]
Cc1nc(NCc2cnn(CCc3ccc(F)cc3)c2)nc2c1N(C)C(=O)[C@H](C)N2C [Compound 8, (7S)-2-(((1-(4-fluorophenethyl)-1H-pyrazol-4-yl)methyl)amino)-4,5,7,8-tetramethyl-7,8-dihydropteridin-6(5H)-one] | > 4
Cc1nc(NCc2cnn(Cc3ccc(F)cc3)c2)nc2c1NC(=O)[C@H](C)N2C [Compound 4, (7S)-2-(((1-(4-fluorobenzyl)-1H-pyrazol-4-yl)methyl)amino)-4,7,8-trimethyl-7,8-dihydropteridin-6(5H)-one] | > 4
Cc1nc(NCc2cnn(CC3CCC3)c2)nc2c1N(C)C(=O)[C@H](C)N2C [Compound 7, (7S)-2-(((1-(cyclobutylmethyl)-1H-pyrazol-4-yl)methyl)amino)-4,5,7,8-tetramethyl-7,8-dihydropteridin-6(5H)-one] | > 4
Cc1nc(N[C@@H]2CC[C@@H](n3ccc(C(F)(F)F)n3)C2)nc2c1NC(=O)[C@H](C)N2C (single isomer, unassigned) [Compound 311] | > 4
CC[C@H]1C(=O)Nc2cnc(NCc3cnn(Cc4ccc(F)cc4)c3)nc2N1C [Compound 9, (7S)-7-ethyl-2-(((1-(4-fluorobenzyl)-1H-pyrazol-4-yl)methyl)amino)-8-methyl-7,8-dihydropteridin-6(5H)-one] | > 4
Cc1nc(NCc2cnn(Cc3cc(C(F)(F)F)nn3C)c2)nc2c1NC(=O)[C@H](C)N2C [Compound 160, (7S)-4,7,8-trimethyl-2-(((1-((1-methyl-3-(trifluoromethyl)-1H-pyrazol-5-yl)methyl)-1H-pyrazol-4-yl)methyl)amino)-7,8-dihydropteridin-6(5H)-one] | > 4
Cc1nc(NCc2cnn(CCc3ccc(F)cc3)c2)nc2c1NC(=O)[C@H](C)N2C [Compound 6, (7S)-2-(((1-(4-fluorophenethyl)-1H-pyrazol-4-yl)methyl)amino)-4,7,8-trimethyl-7,8-dihydropteridin-6(5H)-one] | > 4
Cc1nc(N[C@H]2C[C@H](Oc3ccnc(C(F)(F)F)c3)C2)nc2c1NC(=O)[C@H](C)N2C [Compound 335, (7S)-4,7,8-trimethyl-2-((trans-3-((2-(trifluoromethyl)pyridin-4-yl)oxy)cyclobutyl)amino)-7,8-dihydropteridin-6(5H)-one] | > 4
Cc1nc(N[C@H]2C[C@@H](Oc3cc(F)c(F)c(F)c3)C2)nc2c1NC(=O)[C@H](C)N2C [Compound 247, (7S)-4,7,8-trimethyl-2-((cis-3-(3,4,5-trifluorophenoxy)cyclobutyl)amino)-7,8-dihydropteridin-6(5H)-one] | > 4

The compounds below were run on Colo205-TCF/LEF-Luciferase (Luc) tumor (assay: In vivo inhibition of TCF/LEF reporter activity in Colo-205 tumors). Conditions: TCF/LEF luciferase reporter in Colo-205 tumors, nu/nu mice, oral gavage.
Parameters: concentration or dose not given beside the values
Outline: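 Female nu/nu mice carried subcutaneous Colo205-TCF/LEF-luciferase tumours (200–500 mm^3), n=4 per group. Compound was given by oral gavage in 1:3:5:1 EtOH:DMSO:PEG-400:H2O at 10 ml/kg, with vehicle as control. Luciferase activity in tumour lysates (Steady-Glo) was normalised to BCA protein.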

Structure (SMILES) | Percent Remaining Activity at 8 hrs after Dosing [%]
Cc1nc(NCc2cnn(Cc3ccc(F)cc3)c2)nc2c1NC(=O)[C@H](C)N2C [Compound 4, (7S)-2-(((1-(4-fluorobenzyl)-1H-pyrazol-4-yl)methyl)amino)-4,7,8-trimethyl-7,8-dihydropteridin-6(5H)-one] | 23
Cc1nc(N[C@H]2C[C@@H](COc3cc(F)c(F)c(F)c3)C2)nc2c1NC(=O)[C@H](C)N2C [Compound 257, (7S)-4,7,8-Trimethyl-2-((cis-3-((3,4,5-trifluorophenoxy)methyl)cyclobutyl)-amino)-7,8-dihydropteridin-6(5H)-one] | 30
CC[C@H]1C(=O)Nc2c(C)nc(NCc3cnn(Cc4ccc(C(F)(F)F)nc4)c3)nc2N1C [Compound 186, (7S)-7-ethyl-4,8-dimethyl-2-(((1-((6-(trifluoromethyl)pyridin-3-yl)methyl)-1H-pyrazol-4-yl)methyl)amino)-7,8-dihydropteridin-6(5H)-one] | 23
Cc1nc(NCc2cnn(Cc3ccnc(C(F)(F)F)c3)c2)nc2c1NC(=O)[C@H](C)N2C [Compound 207, (7S)-4,7,8-trimethyl-2-(((1-((2-(trifluoromethyl)pyridin-4-yl)methyl)-1H-pyrazol-4-yl)methyl)amino)-7,8-dihydropteridin-6(5H)-one] | 18
Cc1nc(N[C@H]2CC[C@H](Oc3ccc(C(F)(F)F)nc3)C2)nc2c1NC(=O)[C@H](C)N2C (single isomer, unassigned) [Compound 377] | 33
Cc1nc(NCc2cnn(Cc3ccc(F)nc3)c2)nc2c1NC(=O)[C@H](C1CC1)N2C [Compound 421, (7S)-7-cyclopropyl-2-(((1-((6-fluoropyridin-3-yl)methyl)-1H-pyrazol-4-yl)methyl)amino)-4,8-dimethyl-7,8-dihydropteridin-6(511)-one] | 23
Cc1nc(NCc2cnn(Cc3cc(C(F)(F)F)nn3C)c2)nc2c1NC(=O)[C@H](C)N2C [Compound 160, (7S)-4,7,8-trimethyl-2-(((1-((1-methyl-3-(trifluoromethyl)-1H-pyrazol-5-yl)methyl)-1H-pyrazol-4-yl)methyl)amino)-7,8-dihydropteridin-6(5H)-one] | 18
Cc1ncc(Cn2cc(CNc3nc(C)c4c(n3)N(C)[C@@H](C(C)C)C(=O)N4)cn2)cc1F [Compound 425, (7S)-2-(((1-((5-fluoro-6-methylpyridin-3-yl)methyl)-1H-pyrazol-4-yl)methyl)amino)-7-isopropyl-4,8-dimethyl-7,8-dihydropteridin-6(5H)-one] | 29
CCN1c2nc(NCc3cnn(Cc4ccc(C(F)(F)F)nc4)c3)nc(C)c2NC(=O)[C@@H]1C [Compound 395, (7S)-8-Ethyl-4,7-dimethyl-2-(((1-((6-(trifluoromethyl)pyridin-3-yl)methyl)-1H-pyrazol-4-yl)methyl)amino)-7,8-dihydropteridin-6(5H)-one] | 19
Cc1nc(NCc2cnn(Cc3ccc(Cl)nc3)c2)nc2c1NC(=O)[C@H](C(C)C)N2C [Compound 409, (7S)-2-(((1-((6-chloropyridin-3-yl)methyl)-1H-pyrazol-4-yl)methyl)amino)-7-isopropyl-4,8-dimethyl-7,8-dihydropteridin-6(5H)-one] | 27
Cc1nc(NCc2cnn(Cc3ccc(C(F)(F)F)nc3)c2)nc2c1NC(=O)[C@H](C)N2C(C)C [Compound 385, (7S)-8-isopropyl-4,7-dimethyl-2-(((1-((6-(trifluoromethyl)pyridin-3-yl)methyl)-1H-pyrazol-4-yl)methyl)amino)-7,8-dihydropteridin-6(5H)-one] | 25
Cc1nc(N[C@H]2C[C@H](Oc3ccnc(C(F)(F)F)c3)C2)nc2c1NC(=O)[C@H](C)N2C [Compound 335, (7S)-4,7,8-trimethyl-2-((trans-3-((2-(trifluoromethyl)pyridin-4-yl)oxy)cyclobutyl)amino)-7,8-dihydropteridin-6(5H)-one] | 18
Cc1nc(NCc2cnn(Cc3cccc(C(C)C)c3)c2)nc2c1NC(=O)[C@H](C)N2C [Compound 80, (7S)-2-(((1-(3-isopropylbenzyl)-1H-pyrazol-4-yl)methyl)amino)-4,7,8-trimethyl-7,8-dihydropteridin-6(5H)-one] | 34
Cc1nc(NCc2cnn(Cc3cc(F)c(F)c(F)c3)c2)nc2c1NC(=O)[C@H](C)N2C [Compound 122, (7S)-4,7,8-trimethyl-2-(((1-(3,4,5-trifluorobenzyl)-1H-pyrazol-4-yl)methyl)amino)-7,8-dihydropteridin-6(5H)-one] | 16
Cc1nc(NCc2cnn(Cc3ccc(C(F)(F)F)nc3[C@@H](C)O)c2)nc2c1NC(=O)[C@H](C)N2C (single isomer, unassigned) [Compound 420] | 28
Cc1nc(NCc2cnn(Cc3ccc(C(F)(F)F)nc3C(C)(C)O)c2)nc2c1NC(=O)[C@H](C)N2C [Compound 416, (7S)-2-(((1-((2-(2-hydroxypropan-2-yl)-6-(trifluoromethyl)pyridin-3-yl)methyl)-1H-pyrazol-4-yl)methyl)amino)-4,7,8-trimethyl-7,8-dihydropteridin-6(5H)-one] | 22
Cc1nc(NCc2cnn(Cc3cc(C(F)(F)F)nn3C)c2)nc2c1NC(=O)[C@H](C1CC1)N2C [Compound 396, (7S)-7-Cyclopropyl-4,8-dimethyl-2-(((1-((1-methyl-3-(trifluoromethyl)-1H-pyrazol-5-yl)methyl)-1H-pyrazol-4-yl)methyl)amino)-7,8-dihydropteridin-6(5H)-one] | 23
Cc1nc(N[C@H]2C[C@@H](Sc3cc(F)c(F)c(F)c3)C2)nc2c1NC(=O)[C@H](C)N2C [Compound 332, (7S)-4,7,8-trimethyl-2-((cis-3-((3,4,5-trifluorophenyl)thio)cyclobutyl)amino)-7,8-dihydropteridin-6(5H)-one] | 51
Cc1nc(NCc2cnn(Cc3ccc(C(F)(F)F)nc3)c2)nc2c1NC(=O)[C@H](C1CC1)N2C [Compound 386, (7S)-7-Cyclopropyl-4,8-dimethyl-2-(((1-((6-(trifluoromethyl)pyridin-3-yl)methyl)-1H-pyrazol-4-yl)methyl)amino)-7,8-dihydropteridin-6(5H)-one] | 19
